“Also recorded” adds a separate entry of the source. Blank lines part the entries; values can stand above or below the molecule they belong to.
Columns and labels:
[1] = Solubility / precipitation of IV formulations on pH adjustment; type: physicochemical; settings: pH lowered with hydrochloric acid solution
Method: Summary of Experiments. […] The pH of the compounding solution would later be adjusted by sodium hydroxide solution to the target pH. […] Only samples containing 20% SBECD (samples S-1.1 and S-2.1) were fully soluble at the desired pH.
Sample Preparation. To a 20 mL scintillation vial was added 60 mg of the racemate of the free base of the compound of Formula I and a magnetic stir bar. 3 mL of formulation solution (either 0%, 10% or 20% w/w SBECD in H2O) was added. The pH of the mixture was adjusted to approximately pH 3 by the addition of 1N HCl. Upon full dissolution (with magnetic stirring, sonication if necessary), the IV formulation was adjusted to the final pH by the addition of 1N NaOH solution. The IV formulation was filtered through a syringe filter, separated into 3 samples of approximately equal volume, and the samples were transferred to a stability chamber at 2-5° C., 25° C., or 40° C. At the specified time point the sample was removed from the stability chamber, an aliquot of the IV formulation was removed and diluted to 0.5 mg/mL with H2O for HPLC analysis.
As noted above, significant precipitation of compound D1 occurred upon adjusting the IV formulation to the final pH level of 5 or 6 for IV formulations containing <20% SBECD. […] IV formulations were filtered prior to conducting the stability studies.

SYO1 cells [2] = experiment: Cell cycle analysis, Click-iT Plus EdU Flow Cytometry Assay; type: cell-based, human; settings: SYO1, 200 nM or 1 μM, 8 or 13 days, compared to DMSO and lenalidomide
Method: (§1) Procedure: SYO1 cells were treated for 8 or 13 days with DMSO, a BRD9 degrader (Compound 1) at 200 nM or 1 μM, or an E3 ligase binder (lenalidomide) at 200 nM. Compounds were refreshed every 5 days. Cell cycle analysis was performed using the Click-iT™ Plus EdU Flow Cytometry Assay (Invitrogen). The apoptosis assay was performed using the Annexin V-FITC Apoptosis Detection Kit (Sigma A9210). Assays were performed according to the manufacturer's protocol.

[3] = test system: non-synovial control cancer cell lines (293T, A549, G401); experiment: Growth of non-synovial control cancer cell lines (Example 2); type: cell-based
Method: (§2) Cells were treated with DMSO or the BRD9 degrader, Compound 1, at indicated concentrations, and proliferation was monitored from day 7 to day 14 by measuring confluency overtime using an IncuCyte live cell analysis system (FIG. 4). Growth medium and compounds were refreshed every 3-4 days.
(§3) Cells were seeded into 12-well plates and treated with DMSO, 1 μM BRD9 inhibitor, Compound 2 (also known as BI-7273, see Martin et al, J Med Chem. 59(10):4462-4475 (2016); see structure of compound 2 below), or 1 μM BRD9 degrader, Compound 1.
(§4) The number of cells was optimized for each cell line. Growth medium and compounds were refreshed every 3-5 days. SYO1, Yamato, A549, 293T and HS-SY-II cells were fixed and stained at day 11. ASKA cells were fixed and stained at day 23. Staining was done by incubation with crystal violet solution (0.5 g Crystal Violet, 27 ml 37% Formaldehyde, 100 mL 10×PBS, 10 mL Methanol, 863 dH20 to 1 L) for 30 min followed by 3× washes with water and drying the plates for at least 24 h at room temperature. Subsequently plates were scanned on an Odyssey CLx Imaging system (FIG. 5).
(§5) Cells were seeded into 96-well ultra-low cluster plate (Costar, #7007) in 200 μL complete media and treated at day 2 with DMSO, Staurosporin, or BRD9 degrader, Compound 1, at indicated doses (FIG. 2C). Media and compounds were changed every 5 d and cell colonies were imaged at day 14.

[4] = test system: synovial sarcoma cell lines (SYO1, HS-SY-II, and ASKA); experiment: Growth of synovial sarcoma cell lines, crystal violet day 14 (Example 3); type: cell-based; settings: daily treatment
Method: (§6) Procedure: Cells were seeded into 6-well or 12-well plates and were treated daily with a BRD9 degrader (Compound 1), a bromo-domain BRD9 binder (Compound 2), E3 ligase binder (lenalidomide), DMSO, or staurosporin (positive control for cell killing), at indicated concentrations. The number of cells was optimized for each cell line. Growth media was refreshed every 5 days. By day 14, medium was removed, cells were washed with PBS, and stained using 500 μL of 0.005% (w/v) crystal violet solution in 25% (v/v) methanol for at least 1 hour at room temperature. Subsequently plates were scanned on an Odyssey CLx Imaging system.

[5] = test system: synovial sarcoma cell lines (SYO1, Yamato, HS-SY-II, and ASKA); experiment: Growth of synovial sarcoma cell lines, IncuCyte confluency / crystal violet / colony imaging (Example 2); type: cell-based; settings: FIGS. 4, 5, 6
Method: as §2, §3, §4, §5

SYO1 cells [6] = experiment: Apoptosis assay, Annexin V-FITC Apoptosis Detection Kit; type: cell-based, human; settings: SYO1, 8 days, compared to DMSO controls
Method: as §1

[7] = test system: non-synovial control cancer cell lines (RD, HCT116, and Calu6); experiment: Growth of non-synovial control cancer cell lines, crystal violet day 14 (Example 3); type: cell-based; settings: daily treatment
Method: as §6

[8] = target: T1, Nanoluciferase-BRD9 fusion protein (Homo sapiens, UniProt Q9H8M2); experiment: SYO1 BRD9 NanoLuc degradation assay; type: cell-based; settings: 6 hours incubation; read-out: SYO1 BRD9-NanoLuc degradation IC50
T1 construct: fused on or other part: 3xFLAG tag and Nanoluciferase (NLuc) as reporter handle, fused to BRD9. b953 puts them at the N-terminus
T1 sequence (Q9H8M2 134-240 limits assumed): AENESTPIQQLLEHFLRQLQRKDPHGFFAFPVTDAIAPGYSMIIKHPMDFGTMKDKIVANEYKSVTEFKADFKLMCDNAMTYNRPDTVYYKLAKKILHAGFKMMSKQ
Method: Procedure: A stable SYO-1 cell line expressing 3×FLAG-NLuc-BRD9 was generated. On day 0 cells were seeded in 30 μL media into each well of 384-well cell culture plates. The seeding density was 8000 cells/well. On day 1, cells were treated with 30 nL DMSO or 30 nL of 3-fold serially DMSO-diluted compounds (10 points in duplicates with 1 μM as final top dose). Subsequently plates were incubated for 6 hours in a standard tissue culture incubator and equilibrated at room temperature for 15 minutes. Nanoluciferase activity was measured by adding 15 μL of freshly prepared Nano-Glo Luciferase Assay Reagent (Promega N1130), shaking the plates for 10 minutes and reading the bioluminescence using an EnVision reader.
Results: The Inhibition % was calculated using the following formula: % Inhibition=100×(LumHC−LumSample)/(LumHC−LumLC). DMSO treated cells are employed as High Control (HC) and 1 μM of a known BRD9 degrader standard treated cells are employed as Low Control (LC).

Compound: COc1cc(-c2cn(C)c(=O)c3cnc(N4CCC4)cc23)cc(OC)c1CN1CCC(CN2CCC3(CC2)CN(c2ccc4c(c2)C(=O)N(C2CCC(=O)NC2=O)C4)C3)CC1 (racemic) [racemate of the free base of the compound of Formula I]
- dissolution at pH 3 [1]: complete dissolution

Compound: COc1cc(-c2cn(C)c(=O)c3cnccc23)cc(OC)c1CN(C)CC(=O)NCCOCCOCCNc1cccc2c1C(=O)N(C1CCC(=O)NC1=O)C2=O (centres unmarked) [Compound 1]
- cells in the S-phase of the cell cycle (SYO1 cells [2]): reduced numbers of cells in the S-phase of the cell cycle
- growth of non-synovial control cancer cell lines [3]: does not result in inhibition of the growth
- growth of synovial sarcoma cell lines [4]: inhibition of the growth of the cells; also recorded: most significant growth inhibition in all synovial cell lines
- growth of synovial sarcoma cell lines [5]: inhibition of the growth of the cells
- early- and late-apoptotic cells (SYO1 cells [6]): increased numbers of early- and late-apoptotic cells
- growth of non-synovial control cancer cell lines [7]: did not result in inhibition of the growth

- DC50 [8]: 0.18 nM
Compound: [2H]C([2H])([2H])Oc1cc(-c2cn(C)c(=O)c3cnc(N4CCC4)cc23)cc(OC([2H])([2H])[2H])c1CN1CCC(CN2CCC3(CC2)CN(c2ccc4c(c2)C(=O)N(C2CCC(=O)NC2=O)C4)C3)CC1 (centres unmarked) [Compound D2]

From US11767330B2, “Citrate salt, pharmaceutical compositions, and methods of making and using the same” (Foghorn Therapeutics Inc., priority 2021, dated 2023)
